“Also recorded” adds a separate entry of the source.
Tested on: plasma biomarkers
Test: Circulating biomarker assays: plasma proteins (multiplex arrays, ELISA)
Type: in vivo, human
Parameters: plasma VEGF R2, Median / plasma bFGF, Median / plasma sPLT-3, Median / plasma VEGF, Median / plasma VEGF-D, Median / plasma sMET, Median: unit not given beside the values
Source text: Circulating Biomarker Assays: Potential biomarkers of cabozantinib activity were identified by measuring plasma proteins at baseline, on day 8 of therapy, on day 1 of each cycle of therapy, and, if available, at the time of progression. Eight milliliters of blood was collected in purple top (plasma EDTA) vacutainers and shipped on wet ice to a Clinical Laboratory Improvement Amendments-certified core in the Steele Laboratories (Massachusetts General Hospital), where whole blood was separated by centrifugation into cellular fraction and plasma. The fraction of stem/progenitor cell, lymphocyte, and myeloid populations of total circulating mononuclear cells were counted by flow cytometry using a LSR-II cytometer and FACSDiva software in fresh blood samples using the following markers: CD3, CD4, CD8, CD14, CD25, CD34, CD45, CD56, CD127, and CD133 (Becton Dickinson, Franklin Lakes, NJ, www.bd.com). Plasma was prepared in the standard fashion and stored at −78° C. until collection and analysis of all samples. The biomarkers measured included VEGF, placental growth factor (PlGF), VEGF-C, VEGF-D, soluble VEGFR1 (sVEGFR1), basic fibroblast growth factor (bFGF), and sTie-2 (using a 7-plex Growth Factor array) and granulocyte-macrophage colony stimulating factor (GM-CSF), interferon gamma (IFN-g), tumor necrosis factor alpha (TNF-a), and interleukin-1beta (IL-1b), IL-2, IL-6, IL-8, IL-10, and IL-12 heterodimer p70 (using a 9-plex Inflammatory Factor array; both Meso Scale Discovery, Gaithersburg, MD, www.mesoscale.com); and HGF, sMET, carbonic anhydrase IX (CAIX), stromal cell-derived factor 1 a (SDF1a), and sVEGFR2 by single analyte enzyme-linked immunosorbent assay (R&D Systems, Minneapolis, MN, www.rndsystems.com). Descriptive statistics were used to summarize biomarker values at protocol-specific time points. […] The Wilcoxon signed rank test assessed biomarker change from day 1 to 8. Mixed effects linear models assessed the change in biomarker values at days 1, 8, 22, 43, and 64; values beyond day 64 were not analyzed because of the small number of patients still on protocol. In the mixed effects linear model, the fixed effects were times of assessment, and patients were entered as a random effect. Logarithmic transformation was used to achieve normality, when applicable. Baseline biomarkers were stratified by using the median values for the entire cohort. The log-rank test compared PFS among patients with low or high baseline sMET. All tests were conducted with two-sided […]. The Benjamini-Hochberg procedure was used to adjust p values to control the false discovery rate from evaluating multiple circulating biomarkers.

[1] = baseline to day 22, maintained at day 64

COc1cc2nccc(Oc3ccc(NC(=O)C4(C(=O)Nc5ccc(F)cc5)CC4)cc3)c2cc1OC [cabozantinib]
plasma VEGF R2, Median (Day 1 (baseline)): 8.872
plasma VEGF, Median (Day 1 (baseline)): 98
plasma VEGF-D, Median (Day 1 (baseline)): 1.062
plasma bFGF, Median (Day 1 (baseline)): 39
plasma sMET, Median (Day 1 (baseline)): 795
plasma sPLT-3, Median (Day 1 (baseline)): 1.24
plasma VEGF R2, Median (Day 8): 8.475
plasma VEGF, Median (Day 8): 188
plasma VEGF-D, Median (Day 8): 1.419
plasma bFGF, Median (Day 8): 41
plasma sMET, Median (Day 8): 890
plasma sPLT-3, Median (Day 8): 50
plasma VEGF R2, Median (Day 22): 6.726
plasma VEGF, Median (Day 22): 206
plasma VEGF-D, Median (Day 22): 1.582
plasma bFGF, Median (Day 22): 28
plasma sMET, Median (Day 22): 902
plasma sPLT-3, Median (Day 22): 90
plasma VEGF R2, Median (Day 43): 5.812
plasma VEGF, Median (Day 43): 206
plasma VEGF-D, Median (Day 43): 1.437
plasma bFGF, Median (Day 43): 33
plasma sMET, Median (Day 43): 903
plasma sPLT-3, Median (Day 43): 124
plasma VEGF R2, Median (Day 64): 5.968
plasma VEGF-D, Median (Day 64): 1.429
plasma bFGF, Median (Day 64): 21
plasma sMET, Median (Day 64): 923
plasma sPLT-3, Median (Day 64): 87
change in plasma PIGF [1]: increases
change in plasma VEGF [1]: increases
change in plasma VEGF-D [1]: increases
change in plasma HGF (day 8): initially decreased
change in plasma SDF1a (day 22): transiently increased; also recorded: increases
change in plasma HGF (day 64): increased
change in plasma CAIX (days 43 and 64): increases
change in plasma sVEGFR2 (days 43 and 64): significantly decreased
change in plasma bFGF over time (in vivo): did not significantly change
change in plasma sMET over time (in vivo): did not significantly change
change in plasma sTIE-2 over time (in vivo): did not significantly change
change in plasma sVEGFR1 over time (in vivo): did not significantly change

From patent US20240148714A1, “Triple Negative Breast Cancer Treatment Method” (Exelixis, Inc., priority 2016, published 2024)
